In article PMC12115217, “3,3′-((3-Hydroxyphenyl)azanediyl)dipropionic Acid Derivatives as a Promising Scaffold Against Drug-Resistant Pathogens and Chemotherapy-Resistant Cancer” (Pathogens, 2025):
≈ marks a conversion by molar mass, not a printed value. Counter-ions that a name gives are not always drawn.

Assays:
[1] = system: HEK293 cells; assay: MTT dose-response IC50, HEK293 cells; type: cell-based; settings: non-cancerous HEK293 cells, 24 h
Description: (§1) FaDu cells were obtained from the American Type Culture Collection (Rockville, MD, USA). HEK293 cells were kindly provided by Dr. Iliev lab at the Jill Roberts Institute for Inflammatory Bowel Disease, Weill Cornel Medicine of Cornel University (New York, NY, USA). All cells were cultivated in Dulbecco’s Modified Eagle Medium/Nutrient Mixture F-12 (DMEM/F-12) (Gibco, Waltham, MA, USA), 10% fetal bovine serum (FBS) (Gibco, Waltham, MA, USA), 100 U/mL penicillin, and 100 μg/mL streptomycin (P/S) (Gibco, Waltham, MA, USA). Culturing conditions were maintained at 37 °C in a humidified atmosphere containing 5% CO2. The culture medium was refreshed every 2–3 days, and cells were passaged upon reaching 70–80% confluence.
(§2) The in vitro inhibitory effects of the compounds were assessed by using the MTT assay. Briefly, cells were plated in 96-well plates at a density of 1 × 10⁴ cells per well. After the cells were allowed to adhere overnight at 37 °C in 5% CO₂, they were treated with compounds at a concentration of 100 µM in triplicate. Following a 20 h incubation, the MTT reagent was added, and the cells were further incubated for 4 h. The resulting formazan was solubilized in anhydrous DMSO, and absorbance was measured at 570 nm by using a microplate reader. Cell viability was calculated by using the following formula: ([AE − AB]/[AC − AB]) × 100%, where AE, AC, and AB represent the absorbance values of experimental samples, untreated controls, and blank wells, respectively. Data analysis was performed by using GraphPad Prism or QuickCalcs.
(§3) The data were fitted to a nonlinear regression model (GraphPad Prism version 9.0, GraphPad Software, San Diego, CA, USA) to calculate the IC50 values for each compound tested in triplicate.

[2] = system: FaDu cells; assay: MTT dose-response IC50, FaDu cells; type: cell-based; settings: 0–100 µM, 24 h
Description: as §1, §2, §3

[3] = system: FaDu cells; assay: Hydrogen peroxide production assay in FaDu cells; type: cell-based; settings: 6 h, 0.25% DMSO, versus untreated control
Description: FaDu cells were seeded on the 6-well plates and incubated with the compounds as described before. After incubation, cells were cooled down on ice, washed two times with ice-cold PBS, and scraped in PBS. Cells were centrifuged at 10,000× g for 10 min at 4 °C, the supernatant was discarded, and 650 µL of ice-cold PBS was added. Cells were sonicated and centrifuged at 10,000× g for 10 min at 4 °C to remove cell debris. The resulting supernatant was carefully collected for subsequent hydrogen peroxide analysis by using a commercial kit (Pierce™ Quantitative Peroxide Assay Kit (Aqueous), Catalog number 23280) (Invitrogen, ThermoFisher Scientific, Waltham, MA, USA).

[4] = system: S. aureus TCH 1516; assay: Broth microdilution MIC, S. aureus TCH 1516; type: cell-based, Staphylococcus aureus; settings: mecA MRSA isolate, USA300 lineage; CAMHB, 18 ± 2 h
Excerpt: (§4) The multidrug-resistant S. aureus strain TCH 1516 [USA 300-HOU-MR] was obtained from the American Type Culture Collection (ATCC, Manassas, VA, USA) (Table 1). E. faecalis AR-0671, multidrug-resistant E. coli AR-0001, K. pneumoniae AR-0003, P. aeruginosa AR-1114, and A. baumannii AR-0273 strains were acquired from the Centers for Disease Control and Prevention (CDC) AR isolate bank (Table 1). Prior to the initiation of this study, all microbial strains were stored in commercial cryopreservation systems at a temperature of −80 °C. The strains were cultivated on Columbia sheep blood agar (Becton Dickinson, Franklin Lakes, NJ, USA) or potato dextrose agar (PDA) for Candida (Becton Dickinson, Franklin Lakes, NJ, USA).
(§5) The antimicrobial activity of 3-((3-hydroxyphenyl)amino)propanoic acid derivatives was assessed by using the broth microdilution method, following the guidelines outlined by the Clinical Laboratory Standards Institute (CLSI), with modifications. In brief, the compounds were dissolved in dimethyl sulfoxide (DMSO) to attain a final concentration of 25–30 mg/mL. Vancomycin hydrochloride (MedChem express, Cat. No. HY-17362), cefazolin (MedChem express, Cat. No. HY-B1892), and meropenem (MedChem express, Cat. No. HY-13678) were used as control antimicrobial drugs and were dissolved in DMSO as described before. Dilution series were prepared in deep 96-well microplates to achieve a two-fold concentration range of 0.25, 0.5, 1, 2, 4, 8, 16, 32, and 64 µg/mL, utilizing cation-adjusted Mueller–Hinton broth (CAMHB) as the growth medium. The microplates containing the dilution series were then inoculated with fresh cultures of each tested organism to reach a final concentration of 5 × 10^4 CFU (colony-forming units) of the test organism in media containing 1% DMSO and 1× drug concentration, with a volume of 200 µL per well. Wells that were inoculated with medium containing 1% DMSO served as positive controls. Subsequently, the microplates were incubated at 35 ± 1 °C for 18 ± 2 h. Following the incubation period, the plates were examined by using a manual microplate viewer (Sensititre Manual Viewbox, ThermoFisher Scientific, Waltham, MA, USA). […] All experiments were conducted in duplicate with three technical replicates for each condition.

[5] = system: E. faecalis AR-0671; assay: Broth microdilution MIC, E. faecalis AR-0671; type: cell-based, Enterococcus faecalis; settings: CAMHB; for MIC: Enterococcus faecalis, AR0671, 18 ± 2 h, read-out: minimal inhibitory concentration (MIC) E. faecalis AR-0671
Excerpt: as §4, §5

[6] = system: E. coli AR-0001; assay: Broth microdilution MIC, E. coli AR-0001; type: cell-based, Escherichia coli; settings: multidrug-resistant, KPC-3; CAMHB
Excerpt: as §4, §5

[7] = system: K. pneumoniae AR-0003; assay: Broth microdilution MIC, K. pneumoniae AR-0003; type: cell-based, Klebsiella pneumoniae; settings: KPC-3; CAMHB
Excerpt: as §4, §5

[8] = system: P. aeruginosa AR-1114; assay: Broth microdilution MIC, P. aeruginosa AR-1114; type: cell-based, Pseudomonas aeruginosa; settings: IMP-15; CAMHB
Excerpt: as §4, §5

[9] = system: A. baumannii AR-0273; assay: Broth microdilution MIC, A. baumannii AR-0273; type: cell-based, Acinetobacter baumannii; settings: OXA-23, CAMHB; for MIC: Acinetobacter baumannii, AR0273, 18 ± 2 h, read-out: minimal inhibitory concentration (MIC) A. baumannii AR-0273
Excerpt: as §4, §5

[10] = system: FaDu cells; assay: MTT cell viability at fixed 100 µM, FaDu cells; type: cell-based; settings: 24 h, described in words (Figure 2)
Description: Test compounds 2–25 were dissolved in hybridoma-grade dimethyl sulfoxide (Millipore, Sigma, Burlington, MA, USA) to prepare stock solutions at concentrations of 10–25 mg/mL. […] For in vitro anticancer activity screening, the compounds were thawed at room temperature, protected from light, and the aliquots were diluted in complete cell culture media to achieve a final concentration of 100 µM and used for the in vitro assays. The cytotoxicity assays were performed in triplicate.
as §1, §2

[11] = system: S. aureus TCH 1516; assay: Broth microdilution MIC, S. aureus TCH 1516; type: cell-based; settings: Staphylococcus aureus, MRSA / USA300, mecA MRSA isolate, USA300 lineage; CAMHB, 18 ±; read-out: minimal inhibitory concentration (MIC) S. aureus TCH 1516
[12] = system: E. coli AR-0001; assay: Broth microdilution MIC, E. coli AR-0001; type: cell-based; settings: Escherichia coli, AR0001; multidrug-resistant, KPC-3; CAMHB, 18 ± 2 h; read-out: minimal inhibitory concentration (MIC) E. coli AR-0001
[13] = system: K. pneumoniae AR-0003; assay: Broth microdilution MIC, K. pneumoniae AR-0003; type: cell-based; settings: Klebsiella pneumoniae, AR0003; KPC-3; CAMHB, 18 ± 2 h; read-out: minimal inhibitory concentration (MIC) K. pneumoniae AR-0003
[14] = system: P. aeruginosa AR-1114; assay: Broth microdilution MIC, P. aeruginosa AR-1114; type: cell-based; settings: Pseudomonas aeruginosa, AR1114; IMP-15; CAMHB, 18 ± 2 h; read-out: minimal inhibitory concentration (MIC) P. aeruginosa AR-1114
[15] = system: FaDu cells; assay: Superoxide dismutase (SOD) activity in FaDu cell lysate; type: cell-based; settings: 6 h, 0.25% DMSO, versus untreated control (DMSO)
Description: FaDu cells were seeded onto 6-well tissue culture plates at a density of 5 × 10^5 cells per well and incubated overnight to allow for cell attachment. Following the incubation period, the cells were treated with the selected compounds dissolved in tissue culture medium containing 0.25% DMSO and incubated for an additional 6 h. After the treatment, the medium was aspirated, and the cells were washed twice with phosphate-buffered saline (PBS) to remove residual compounds. The cells were then trypsinized for 10 min to detach them from the culture surface. Following trypsinization, the cells were collected by centrifugation, washed with ice-cold PBS to remove any residual trypsin, and resuspended in 0.5 mL of ice-cold PBS. The cell suspension was then subjected to sonication on ice for disruption. After sonication, the samples were centrifuged at 10,000× g for 10 min at 4 °C to remove cell debris. The resulting supernatant was carefully collected for the subsequent assessment of SOD activity. The activity of superoxide dismutase (SOD) was determined by using a commercial colorimetric assay kit (Superoxide Dismutase (SOD) Colorimetric Activity Kit, Catalog Number EIASODC) (Invitrogen, ThermoFisher Scientific, Waltham, MA, USA) following the manufacturer’s instructions.

Structure (SMILES) | IC50 [1] [µM] | IC50 [2] [µM] | hydrogen peroxide levels (optical density at 525 nm) [3] | minimal inhibitory concentration (MIC) S. aureus TCH 1516 [4] [µg/mL] | minimal inhibitory concentration (MIC) E. faecalis AR-0671 [5] [µg/mL] | MIC [5] [µg/mL] | minimal inhibitory concentration (MIC) E. coli AR-0001 [6] [µg/mL] | minimal inhibitory concentration (MIC) K. pneumoniae AR-0003 [7] [µg/mL] | minimal inhibitory concentration (MIC) P. aeruginosa AR-1114 [8] [µg/mL] | MIC [9] [µg/mL] | minimal inhibitory concentration (MIC) A. baumannii AR-0273 [9] [µg/mL] | post-treatment viability (MTT assay) [10] | MIC [11] [µg/mL] | MIC [12] [µg/mL] | MIC [13] [µg/mL] | MIC [14] [µg/mL] | IC50 ([1]; Homo sapiens) [µM] | IC50 ([2]; Homo sapiens) [µM] | SOD activity (U/mL of cell lysate) [15]
N.N.[Cl][Pt][Cl] [CP, Cisplatin, reference compound] | 15.9 | 16.3 | lower level of hydrogen peroxide production than the tested compounds | – | – | – | – | – | – | – | – | – | – | – | – | – | – | – | –
O=C(O)CCN(CCC(=O)O)c1cccc(O)c1 [Compound 2, 3,3′-((3-Hydroxyphenyl)azanediyl)dipropionic Acid] | – | – | – | >64 | >64 | > 64 | >64 | >64 | >64 | > 64 | >64 | minimal cytotoxicity | > 64 | > 64 | > 64 | > 64 | – | – | –
O=C1CCN(c2cccc(O)c2)C(=O)N1 [Compound 5, 1-(3-Hydroxyphenyl)dihydropyrimidine-2,4(1H,3H)-dione] | – | – | significantly higher | – | – | 32 (≈ 155 µM) | – | – | – | > 64 | – | – | 16 (≈ 77.6 µM) | > 64 | > 64 | > 64 | 41.8 | 9.9 | significantly higher
O=C(CCN(CCC(=O)N/N=C/c1ccsc1)c1cccc(O)c1)N/N=C/c1ccsc1 [Compound 18] | – | – | – | >64 | >64 | > 64 | >64 | >64 | >64 | > 64 | >64 | – | > 64 | > 64 | > 64 | > 64 | – | – | –
CC(C)=NNC(=O)CCN(CCC(=O)NN=C(C)C)c1cccc(O)c1 [Compound 19, 3,3′-((3-Hydroxyphenyl)azanediyl)bis(N′-(propan-2-ylidene)propanehydrazide)] | – | – | – | >64 | >64 | > 64 | >64 | >64 | >64 | > 64 | >64 | lower activity compared with compound 22 | > 64 | > 64 | > 64 | > 64 | – | – | –
COc1cccc2c1C(=O)c1c(O)c3c(c(O)c1C2=O)C[C@@](O)(C(=O)CO)C[C@@H]3O[C@H]1C[C@H](N)[C@H](O)[C@H](C)O1 [DOX, doxorubicin hydrochloride, reference compound] | – | – | significant increase | – | – | – | – | – | – | – | – | – | – | – | – | – | – | 1.81 | –
